Source: patent publication US20050053704A1, “Acidic composition and its uses” (Mionix Corporation, priority 2003, published 2005)
Like-named read-outs stand apart in the source and are kept apart here.

Columns and labels:
L. monocytogenes [1] = settings: cited from earlier work
[2] = Contact of acidic solution with human skin; settings: solution with a pH of less than 0.5
L. monocytogenes [3] = settings: dipping in 5% acid, refrigerated storage; cited from earlier work

CC(O)C(=O)[O-].[Na+] (stereo not drawn) [Sodium lactate]
Effect on growth of L. monocytogenes (L. monocytogenes [1]; 3 or 4% compared to 0 or 2%, cooked beef stored at 10° C. (Miller and Acuff 1994)): effective against the growth

CC(O)C(=O)O (stereo not drawn) [lactate]
Effect on growth of L. monocytogenes (L. monocytogenes [1]; lactate (4%), sterile broth, chicken and beef (Shelef and Yang 1991)): growth suppression | Listeristatic effect, L. monocytogenes strain Scott A (L. monocytogenes [1]; lactate concentrations less than 4%, meat model system (Chen and Shelef 1992)): not listeristatic

O=S(=O)(O)O [sulfuric acid]
Irritation of a hand put into the solution [2]: an irritation would occur within a relatively short span of time

CC(=O)O [acetic acid]
Effect on L. monocytogenes of dipping in acid (L. monocytogenes [3]): not only killed, but also prevented from growing during 90 days of refrigerated storage

CC(O)C(=O)O (stereo not drawn) [lactic acid]
Effect on L. monocytogenes of dipping in acid (L. monocytogenes [3]): not only killed, but also prevented from growing during 90 days of refrigerated storage
